Assay results reported in ChEMBL document CHEMBL1145566, “Synthesis of BC-ring model of globostellatic acid X methyl ester, an anti-angiogenic substance from marine sponge” (Bioorg Med Chem Lett, 2008).
The source made the active and inactive calls. The rule behind the calls is not given here.

Key:
Type in all cases: functional, cell-based
[1] = Antiproliferative activity against human KB3-1 cells after 72 hrs; conditions: KB 3-1, 72 h
HUVEC [2] = assay: Antiproliferative activity against human HUVEC cells after 72 hrs
HUVEC [3] = assay: Inhibition of VEGF-induced migration in human HUVEC cells
HUVEC [4] = assay: Inhibition of VEGF-induced tubular formation in human HUVEC cells

SMILES | IC50 [1] | IC50 (HUVEC [2]) | Activity (HUVEC [3]) | Activity (HUVEC [4])
CC(C)=C/C=C/C(C)=C/C=C/C(C)=C1/C(=O)C[C@H]2CC3(CC[C@]12C)OCCO3 | 20 µM | 13 µM | – | –
CC(C)=C/C=C/C(C)=C/C=C/C(C)=C1/C(=O)C[C@H]2CC(=O)CC[C@]12C | 17 µM | 2.6 µM | – | –
CC(C)=C/C=C/C(C)=C/C=C/C(C)=C1/CC[C@H]2CC3(CC[C@]12C)OCCO3 | 21 µM | 8.8 µM | – | –
COC(=O)[C@]1(C)[C@@H]2CC[C@]3(C)/C(=C(C)/C=C/C=C(C)/C=C/C=C(C)C)C(=O)C[C@H]3[C@@]2(C)CC[C@H]1OC(C)=O (stereo in doubt) | – | – | Active | Active
COC(=O)[C@]1(C)[C@@H]2CC[C@]3(C)\C(=C(C)/C=C/C=C(C)/C=C/C=C(C)C)C(=O)C[C@H]3[C@@]2(C)CC[C@H]1OC(C)=O (stereo in doubt) | 14 µM | 0.09 µM | Active | Active
COC(=O)[C@]1(C)[C@@H]2CC[C@]3(C)/C(=C(C)/C=C/C=C(C)\C=C\C=C(C)C)C(=O)C[C@H]3[C@@]2(C)CC[C@H]1OC(C)=O (stereo in doubt) | – | – | Active | Active
COC(=O)[C@]1(C)[C@@H]2CC[C@]3(C)\C(=C(C)/C=C/C=C(C)\C=C\C=C(C)C)C(=O)C[C@H]3[C@@]2(C)CC[C@H]1OC(C)=O (stereo in doubt) | – | – | Active | Active
